Data published in ChEMBL document CHEMBL1130098, “4-Heterocyclylpiperidines as selective high-affinity ligands at the human dopamine D4 receptor” (J Med Chem, 1997).
pKi: −log10 of the molar value.

How the values were obtained:
D(4) dopamine receptor = biological target: T1, D(4) dopamine receptor (Homo sapiens, UniProt P21917)
T1 sequence (P21917 whole entry): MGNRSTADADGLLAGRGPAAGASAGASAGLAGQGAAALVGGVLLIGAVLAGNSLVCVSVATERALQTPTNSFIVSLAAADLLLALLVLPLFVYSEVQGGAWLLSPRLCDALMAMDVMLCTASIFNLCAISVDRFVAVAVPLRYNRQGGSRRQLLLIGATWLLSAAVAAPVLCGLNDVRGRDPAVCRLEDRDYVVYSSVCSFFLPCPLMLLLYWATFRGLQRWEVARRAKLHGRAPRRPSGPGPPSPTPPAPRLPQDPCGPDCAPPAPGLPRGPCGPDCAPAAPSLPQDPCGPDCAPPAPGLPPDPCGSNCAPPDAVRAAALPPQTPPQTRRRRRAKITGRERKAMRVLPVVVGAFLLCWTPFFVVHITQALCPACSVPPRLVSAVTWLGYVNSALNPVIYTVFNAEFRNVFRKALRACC
Description: Ability to displace [3H]spiperone from human dopamine receptor D4 (hD4) receptor stably expressed in HEK293 cells.

D(3) dopamine receptor = D(3) dopamine receptor (Homo sapiens, UniProt P35462)
D(3) dopamine receptor, sequence (P35462 whole entry): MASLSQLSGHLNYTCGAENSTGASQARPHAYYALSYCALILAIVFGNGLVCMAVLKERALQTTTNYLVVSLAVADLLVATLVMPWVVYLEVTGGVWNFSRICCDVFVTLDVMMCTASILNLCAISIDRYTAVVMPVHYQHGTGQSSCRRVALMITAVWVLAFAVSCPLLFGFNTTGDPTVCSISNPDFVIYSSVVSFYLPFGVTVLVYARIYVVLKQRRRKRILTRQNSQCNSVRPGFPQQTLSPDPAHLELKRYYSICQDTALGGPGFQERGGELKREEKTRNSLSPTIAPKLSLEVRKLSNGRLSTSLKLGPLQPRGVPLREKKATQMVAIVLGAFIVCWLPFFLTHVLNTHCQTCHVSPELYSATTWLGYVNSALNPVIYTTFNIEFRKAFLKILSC
Description: Ability to displace [3H]spiperone from human dopamine receptor D3 (hD3) receptor stably expressed in HEK293 cells.

| SMILES | pKi (D(4) dopamine receptor) | pKi (D(3) dopamine receptor) |
| --- | --- | --- |
| Cc1cc(C2CCN(Cc3ccccc3)CC2)[nH]n1 | 6.33 | 5.47 |
| Clc1ccc(-c2cc(C3CCN(CC4CCCCC4)CC3)[nH]n2)cc1 | 7.89 | 6.14 |
| O=C(/C=C(\O)c1ccc(Cl)cc1)C1CCN(Cc2ccccc2)CC1 | 7.92 | 6.29 |
| c1ccc(CCN2CCC3(CCc4c(-c5ccccc5)n[nH]c43)CC2)cc1 | 6.03 | 6.22 |
| c1ccc(CCN2CCC(c3cc(-c4cccs4)[nH]n3)CC2)cc1 | 7.72 | 5.96 |
| c1ccc(Cc2cc(C3CCN(Cc4ccccc4)CC3)[nH]n2)cc1 | 6.80 | 5.68 |
| Cc1c(-c2ccccc2)n[nH]c1C1=CCN(CCc2ccccc2)CC1 | 8.51 | 6.08 |
| c1ccc(CCN2CCC(c3cc(-c4ccccn4)[nH]n3)CC2)cc1 | 7.66 | 5.44 |
| CC1(C(=O)/C=C(\O)c2ccc(Cl)cc2)CCN(Cc2ccccc2)CC1 | 6.46 | 6.29 |
| c1ccc(CCN2CCN(c3cc(-c4ccccc4)[nH]n3)CC2)cc1 | 7.64 | 5.92 |
| c1ccc(CCN2CCC(c3cc(C4CCCCC4)n[nH]3)CC2)cc1 | 8.00 | 5.92 |
| Cc1c(-c2ccc(Cl)cc2)nc(N)nc1C1CCN(CCc2ccccc2)CC1 | 8.33 | 5.96 |
| Clc1ccc(CN2CCC(c3cc(-c4ccc(Cl)cc4)no3)CC2)cc1 |  | 7.10 |
| Clc1ccc(-c2cc(C3CCNCC3)[nH]n2)cc1 | < 5.48 | < 5.36 |
| CN1CCC(c2cc(-c3ccc(Cl)cc3)[nH]n2)CC1 | 5.92 | < 5.72 |

Now from value to molecule:

| pKi (D(4) dopamine receptor) | pKi (D(3) dopamine receptor) | SMILES |
| --- | --- | --- |
| 7.22 | 5.37 | Clc1ccc(-c2cc(C3CCN(Cc4cccc(Cl)c4)CC3)[nH]n2)cc1 |
| 7.28 | < 5.40 | c1ccc(CCN2CCC(c3cc(-c4ccncc4)n[nH]3)CC2)cc1 |
| 5.32 | 5.74 | Clc1ccc(-c2cc(C3CCCCN3Cc3ccccc3)[nH]n2)cc1 (configuration not stated) |
| 8.80 | 6.37 | Cc1c(C2CCN(Cc3ccccc3)CC2)n[nH]c1-c1ccc(Cl)cc1 |
| 6.39 | 6.62 | Clc1ccc(-c2cc(C3CCCN(Cc4ccccc4)C3)[nH]n2)cc1 (configuration not stated) |
| 7.33 | 5.89 | CC1(c2cc(-c3ccc(Cl)cc3)[nH]n2)CCN(Cc2ccccc2)CC1 |
| 6.96 | 6.06 | Clc1ccc(-c2cc(C3CCN(CCCc4ccccc4)CC3)[nH]n2)cc1 |
| 8.82 | 7.34 | CCc1c(C2CCN(Cc3ccccc3)CC2)n[nH]c1-c1ccc(Cl)cc1 |
| 8.04 | 6.80 | Clc1ccc(-c2cc(C3CCN(Cc4ccccc4)CC3)[nH]n2)cc1 |
| 7.70 | 5.89 | Clc1ccc(-c2cc(C3CCN(Cc4ccccc4Cl)CC3)[nH]n2)cc1 |
| 6.96 | 6.04 | Clc1ccc(-c2cc(C3CCN(Cc4ccccc4)C3)[nH]n2)cc1 (configuration not stated) |
| 7.64 | < 5.38 | c1ccc(CCN2CCC(c3cc(-c4cccnc4)n[nH]3)CC2)cc1 |
| 9.00 | 6.85 | Nc1nc(-c2ccc(Cl)cc2)cc(C2CCN(Cc3ccccc3)CC2)n1 |
| 7.96 | 5.85 | c1ccc(CN2CCC(c3cc(-c4ccccc4)[nH]n3)CC2)cc1 |
